Measurements: US7211561B2, “Method for inducing selective cell death of malignant cells by activation of calcium-activated potassium channels (KCa)” (Cedars-Sinai Medical Center, priority 2001, dated 2007)
Counter-ions that a name gives are not always drawn.

Legend:
[1] = system: rat and human malignant cells studied, as well as normal cells; test: Cell proliferation assay (WST-1, OD 450 nm), all cell lines; type: cell-based; conditions: data not shown
Protocol: (§1) Primary cell lines were prepared from human gliomas (glioblastoma multiforme [GBM] or astrocytoma) or established rat glioma cell lines (RG2, C6 and 9L) were used. Cultured human normal cell lines, brain microvessel endothelial cells (HBMVEC), or fetal astrocytes were used.
(§2) Cells (5×10^4 cells) were cultured in each well of 96-well microtiter culture plates and were allowed to achieve confluency to form a monolayer of cells in each well. For dose response studies cells were incubated with different concentrations (1–100 μg/mL) of NS-1619 or minoxidil sulfate for 4 hours at 37° C. in a CO2 (5%) incubator. Cells washed twice carefully with respective medium, and allowed to incubate overnight at 37° C. under 5% CO2. The following day, cells were incubated with WST-1 reagent (Boehringer Mannheim) at 37° C. in a CO2 (5%) incubator for 60–90 minutes, and optical density at 450 nm was measured with a 96-well plate reader. The magnitude of OD indicated the number of viable cells, greater the OD, higher the number of viable cells, correlated a standard curve of cell numbers.

9L rat glioma cells = test: Cell proliferation assay (WST-1, OD 450 nm); type: cell-based; conditions: 1–100 μg/mL, 4 hours, dose-dependent (FIG. 1)
Protocol: as §1, §2

C6 rat glioma cells = test: Cell proliferation assay (WST-1, OD 450 nm); type: cell-based; conditions: 1–100 μg/mL, 4 hours, dose-dependent (FIG. 1)
Protocol: as §1, §2

RG2 rat glioma cells = test: Cell proliferation assay (WST-1, OD 450 nm); type: cell-based
Protocol: as §1, §2

[2] = system: human normal brain microvessel endothelial cells (HBMVEC); test: Cell proliferation assay (WST-1, OD 450 nm); type: cell-based
Protocol: as §1, §2

[3] = system: human normal fetal astrocytes (HFA); test: Cell proliferation assay (WST-1, OD 450 nm); type: cell-based
Protocol: as §1, §2

[4] = system: primary human GBM glioma cell line; test: Cell proliferation assay (WST-1, OD 450 nm); type: cell-based
Protocol: as §1, §2

[5] = system: primary human astrocytoma cell line; test: Cell proliferation assay (WST-1, OD 450 nm); type: cell-based; conditions: 1–100 μg/mL, 4 hours, dose-dependent (FIG. 2)
Protocol: as §1, §2

U87 human glioma cells = test: In vitro apoptosis assay (Annexin V-FITC/propidium iodide, FACS); type: cell-based; conditions: 50 μg/mL
Protocol: (§3) Human glioma cells (U-87) and HBMVECells were seeded into a 25-mL tissue-culture flask. After 24 h (about 60–70% confluencey), cells were treated with either […] (50 or 100 micrograms/mL) or staurosporine (positive control; 5 μM), a known inducer of apoptosis (Tamaoki, T., et al., Staurosporine, a potent inhibitor of phospholipid/Ca^++ dependent protein kinase, Biochem. Biophys. Res. Commun. 135: 397–402 [1986]; Matsumoto, H., and Sasaki, Y., Staurosporine, a protein kinase C inhibitor interferes with proliferation of arterial smooth muscle cells, Biochem. Biophys. Res. Commun. 158:105–109 [1989]). U-87 cells were returned to the CO2 incubator and incubated overnight. The following day, cells were washed twice with fresh growth medium and cells prepared for FACS analysis as described hereinbelow.
The changes in plasma membrane are one of the earliest events in cell death. In apoptotic cells the membrane phospholipid phosphatidylserine (PS) is translocated from the inner to the outer leaflet of the cell membrane in the early phases of apoptosis. Annexin V is a Ca^2+-dependent, phospholipid-binding protein that binds to PS with high affinity. Consequently, Annexin V (PharMingen) conjugated to a label, such as fluorescein isothiocyanate (FITC) or biotin, serves as a sensitive probe for flow cytometry analysis of cells that are undergoing apoptosis. […] (PharMingen; Vermes, I. et al., A novel assay for apoptosis. Flow cytometric detection of phosphatidylserine expression on early apoptotic cells using fluorescein labelled Annexin V, J. Immunol. Meth. 184:39–51 [1995]). Concurrently, propidium iodide is typically used as a standard flow cytometric viability probe, because the intact cell membranes of viable cells exclude propidium iodide, whereas the cell membranes of dead and damaged cells are permeable to propidium iodide. Cells that stain positive for Annexin V and negative for propidium iodide are undergoing apoptosis; cells that stain positive for both Annexin V and propidium iodide are either at the end stage of apoptosis, are undergoing necrosis, or are already dead; and cells that stain negative for both Annexin V-biotin and propidium iodide are alive and not undergoing measurable apoptosis. Briefly, the cells were washed twice with cold PBS and then resuspended in 1× binding buffer (10 mM HEPES/NaOH, pH 7.4, 140 mM NaCl, 2.5 mM CaCl2; 4° C.) at a concentration of about 1×10^6 cells/mL. A 100-μL aliquot of cell suspension was transferred to 5-mL culture tubes, and 2.5 μL of Annexin V-FITC and 2.5-μL of propidium iodide (PharMingen) were added to each tube. The cell suspensions were gently mixed and incubated for 15 min at room temperature in the dark, after which 400 μL of binding buffer was added to each tube of cells. […]

malignant 9L cells = test: as above; type: cell-based, rat; conditions: 50 μg/mL (FIG. 6E)
Source text: (§4) The changes in plasma membrane are one of the earliest events in cell death. In apoptotic cells the membrane phospholipid phosphatidylserine (PS) is translocated from the inner to the outer leaflet of the cell membrane in the early phases of apoptosis. Annexin V is a Ca^2+-dependent, phospholipid-binding protein that binds to PS with high affinity. Consequently, Annexin V (PharMingen) conjugated to a label, such as fluorescein isothiocyanate (FITC) or biotin, serves as a sensitive probe for flow cytometry analysis of cells that are undergoing apoptosis. […] (PharMingen; Vermes, I. et al., A novel assay for apoptosis. Flow cytometric detection of phosphatidylserine expression on early apoptotic cells using fluorescein labelled Annexin V, J. Immunol. Meth. 184:39–51 [1995]). Concurrently, propidium iodide is typically used as a standard flow cytometric viability probe, because the intact cell membranes of viable cells exclude propidium iodide, whereas the cell membranes of dead and damaged cells are permeable to propidium iodide. Cells that stain positive for Annexin V and negative for propidium iodide are undergoing apoptosis; cells that stain positive for both Annexin V and propidium iodide are either at the end stage of apoptosis, are undergoing necrosis, or are already dead; and cells that stain negative for both Annexin V-biotin and propidium iodide are alive and not undergoing measurable apoptosis. Briefly, the cells were washed twice with cold PBS and then resuspended in 1× binding buffer (10 mM HEPES/NaOH, pH 7.4, 140 mM NaCl, 2.5 mM CaCl2; 4° C.) at a concentration of about 1×10^6 cells/mL. A 100-μL aliquot of cell suspension was transferred to 5-mL culture tubes, and 2.5 μL of Annexin V-FITC and 2.5-μL of propidium iodide (PharMingen) were added to each tube. The cell suspensions were gently mixed and incubated for 15 min at room temperature in the dark, after which 400 μL of binding buffer was added to each tube of cells. The cells were then washed once with 1×binding buffer. Analysis by flow cytometry was then conducted immediately, and no later than within one hour. The resulting analytic FACS graphs were typically divided into four quadrants wherein the upper right (UR) quadrant represented the number of necrotic cells; the lower left (LL) quadrant represented the number of viable cells; the lower right (LR) quadrant represented the number of apoptotic cells; and the upper left (UL) represented cells of an intermediate category, which generally represents cell debris and DNA fragments. The percentage of gated events in each quadrant was used to determine the total percentage of apoptotic and necrotic cells in each cell suspension.

malignant C6 cells = test: as above; type: cell-based, rat; conditions: 50 μg/mL (FIG. 6C)
Source text: as §4

malignant RG2 cells = test: as above; type: cell-based, rat; conditions: 50 μg/mL (FIG. 6A)
Source text: as §4

primary human GBM cells = test: as above; type: cell-based; conditions: 50 μg/mL (FIG. 7A)
Source text: The changes in plasma membrane are one of the earliest events in cell death. In apoptotic cells the membrane phospholipid phosphatidylserine (PS) is translocated from the inner to the outer leaflet of the cell membrane in the early phases of apoptosis. Annexin V is a Ca^2+-dependent, phospholipid-binding protein that binds to PS with high affinity. Consequently, Annexin V (PharMingen) conjugated to a label, such as fluorescein isothiocyanate (FITC) or biotin, serves as a sensitive probe for flow cytometry analysis of cells that are undergoing apoptosis. […] (PharMingen; Vermes, I. et al., A novel assay for apoptosis. Flow cytometric detection of phosphatidylserine expression on early apoptotic cells using fluorescein labelled Annexin V, J. Immunol. Meth. 184:39–51 [1995]). Concurrently, propidium iodide is typically used as a standard flow cytometric viability probe, because the intact cell membranes of viable cells exclude propidium iodide, whereas the cell membranes of dead and damaged cells are permeable to propidium iodide. […]

non-malignant HBMVEC = test: as above; type: cell-based, human; conditions: 50 μg/mL (FIG. 7C)
Protocol: as §3
The changes in plasma membrane are one of the earliest events in cell death. In apoptotic cells the membrane phospholipid phosphatidylserine (PS) is translocated from the inner to the outer leaflet of the cell membrane in the early phases of apoptosis. Annexin V is a Ca^2+-dependent, phospholipid-binding protein that binds to PS with high affinity. Consequently, Annexin V (PharMingen) conjugated to a label, such as fluorescein isothiocyanate (FITC) or biotin, serves as a sensitive probe for flow cytometry analysis of cells that are undergoing apoptosis. […]

[6] = system: implanted RG2 glioma tumor in Wistar rats; test: In vivo apoptosis, intracarotid infusion, implanted tumor tissue (FACS); parameters: species or system rat
Source text: as §4
A rat tumor model, which consisted of intracranially implanted RG2 cells (rat glioma cell line) in Wistar rats, was employed to investigate whether any of several potassium channel activators induce selective apoptosis of tumor cells in vivo.
The techniques for RG2 cell propagation and maintenance in tissue culture have been described (Sugita, M. and Black, K. L., Cyclic GMP-specific phosphodiesterase inhibition and intracarotid bradykinin infusion enhances permeability into brain tumors, Cancer Res. 58(5):914–20 [1998]; Inamura et al. [1994]; Nakano, S. et al., Increased brain tumor microvessel permeability after intracarotid bradykinin infusion is mediated by nitric oxide, Cancer Res. 56(17):4027–31 [1996]). Briefly, RG2 cells derived from a rat glioma are kept frozen until use, then are thawed and maintained in a monolayer culture in F12 medium with 10% calf serum.
The Wistar rats (approximately 140–160 g body weight) were anesthetized with intra-peritoneal ketamine (50 mg/kg), and glial cells (1×10^5) were implanted into the right hemisphere, but not the contralateral hemisphere, by intracerebral injection suspended in 5 μL F12 medium (1–2% methylcellulose) by a Hamilton syringe. The implantation coordinates were 3-mm lateral to the bregma and 4.5 mm deep to the dural surface. […]

[7] = system: PTK activity in RG2 cell lysate; test: Protein tyrosine kinase (PTK) assay; type: biochemical, rat; conditions: 1–50 μM (FIG. 10)
Protocol: A PTK assay kit (The Oncogene Research Products, Boston, Mass.) was used to determine the presence and relative amounts of protein kinase activity in tissue cytosols and cell extracts. Briefly, 1×10^4 RG2 cells seeded in a 50-mL culture flask, and allowed to achieve confluency to form a monolayer at 37° C. in a CO2 incubator.
Briefly, RG2 cells were harvested after trypsinization, and cells were pelleted by centrifugation. Cells were resuspended with extraction buffer (20 mM Tris, pH 7.4, 50 mM NaCl, 1 mM EDTA, 1 mM EGTA, 0.2 mM PMSF, 1 μg/mL pepstatin, 0.5 μg/mL leupetin, 0.2 mM Na3VO4, 5 mM mercaptoethanol, 0.1% Triton X-100), and cells were lysed using a cell homogenizer. After centrifugation, supernatant was separated from the pellet for PTK assay. The supernatant was treated with superoxide dismutase. Pervanadate (100 mM) was used in the PTK assay to inhibit […] activity, and protein concentration was determined by Lowry's method using a Bio-Rad protein assay kit. […]
Assay for PTK activity in RG2 cell-lysates was then performed according to the protocol supplied by the PTK assay kit's manufacturer. After adding the stop solution, absorbance measured in each well at 450 nm using a Spectramax Plus (Molecular Devices, Sunnyvale, Calif.).

Solubility in water = type: physicochemical
Source text: The skilled practitioner is cautious in regulating the final concentration of solvent in the infusion solution to avoid solvent-related toxicity. For example, a final ethanol concentration in an infusion solution up to 5–10% (v/v) is tolerated by most mammalian subjects with negligible toxicity.

[8] = RG2 tumor, 50 μg/kg body mass, two consecutive daily doses, intracarotid (FIG. 8C)
[9] = RG2 tumor, 100 μg/kg body mass, three consecutive daily bolus doses (FIG. 9C)
[10] = RG2 tumor, 100 μg/kg body mass/day for two days, another rat (FIG. 8G)
[11] = RG2 tumor, 100 μg/kg body mass/day for two days, one rat (FIG. 8E)

SMILES: Nc1cc(N2CCCCC2)nc(N)[n+]1OS(=O)(=O)[O-] [minoxidil sulfate]
- sensitivity (cell proliferation) [1]: insensitive

SMILES: O=c1[nH]c2cc(C(F)(F)F)ccc2n1-c1cc(C(F)(F)F)ccc1O [NS-1619, 1,3-dihydro-1-[2-hydroxy-5-(trifluoromethyl)phenyl]-5-(trifluoromethyl)-2H-benzimidazol-2-one]
- cell proliferation (9L rat glioma cells): significantly blocks cell proliferation
- cell proliferation (C6 rat glioma cells): significantly blocks cell proliferation
- cell death (RG2 rat glioma cells; 50 μg/mL (FIG. 3)): 70%
- cell proliferation (RG2 rat glioma cells; 1–100 μg/mL, 4 hours, dose-dependent (FIG. 1)): significantly blocks cell proliferation
- sensitivity (cell death) ([2]; HBMVEC, 50 μg/mL (FIG. 4)): insensitive
- cell proliferation ([2]; normal HBMVEC, 1–100 μg/mL, 4 hours (FIG. 2)): without affecting
- sensitivity (cell death) ([3]; HFA, 50 μg/mL (FIG. 4)): insensitive
- cell proliferation ([3]; normal HFA, 1–100 μg/mL, 4 hours (FIG. 2)): without affecting
- cell death ([4]; 50 μg/mL (FIG. 4)): 90%
- cell proliferation ([4]; 1–100 μg/mL, 4 hours, dose-dependent (FIG. 2)): significantly blocked cell proliferation
- cell proliferation [5]: significantly blocked cell proliferation
- apoptotic cells (U87 human glioma cells): 21%
- necrotic cells (U87 human glioma cells): 14%
- apoptotic cells (malignant 9L cells): 42%
- necrotic cells (malignant 9L cells): 32%
- apoptotic cells (malignant C6 cells): 25%
- necrotic cells (malignant C6 cells): 35%
- apoptosis (malignant RG2 cells): 29%
- necrosis (malignant RG2 cells): 29%
- apoptosis (primary human GBM cells): 24%
- necrosis (primary human GBM cells): 49%
- apoptosis (non-malignant HBMVEC): 4%
- induction of necrosis (non-malignant HBMVEC): did not significantly induce
- apoptotic cells [6, 8]: 28%
- necrotic cells [6, 8]: 24%
- apoptosis [6, 9]: 55%
- necrosis [6, 9]: 9%
- apoptosis [6, 10]: 34%
- necrosis [6, 10]: 9%
- apoptosis [6, 11]: 44%
- necrosis [6, 11]: 15%
- cell death in tumor tissue ([6]; infusion for two or three consecutive days at up to 100 μg/kg body mass): inducing a selective cell death in tumor tissue
- PTK activity [7]: did not significantly affect PTK activity
- solubility in water (Solubility in water): not easily dissolved in water
